From patent US10280156B2, “Heteroaromatic chalcone derivatives and their medical use” (Medizinische Universität Wien, priority 2014, dated 2019)

How the values were obtained:
[1] = test system: PBMC of chronic lymphocytic leukemia (CLL) patients; assay: Viability of primary CLL cells in suspension culture; type: cell-based; conditions: Homo sapiens, CLL cell, 48 h
From the text: Hematological cell lines were acquired from the Leibniz Institute DSMZ-German Collection of Microorganisms and Cell Cultures (www.dsmz.de). Sixteen patients diagnosed with chronic lymphocytic leukemia at the Division of Hematology and Hemostaseology at the Vienna General Hospital and four healthy donors were included in the study. All participants signed informed consent according to the Declaration of Helsinki (Ethics Committee Nr: EK 1722/2012). Peripheral blood mononuclear cells (PBMC) were isolated using standardized Ficoll-Hypaque gradient centrifugation (Seromed, Berlin, Germany) and stored in liquid nitrogen until use. […]
Primary cells were incubated at a density of 300,000 cells per well in 96-well plates in a total volume of 100 μl of Gibco RPMI 1640+L-glutamine (PAA Laboratories) supplemented with 20% FBS gold with increasing concentrations of compounds for 48 h. […] Viability was measured using CellTiter-Blue Cell Viability Assay (Promega, Madison, Wis., USA) following the instructions of the manufacturers. Experiments with primary cells were done in triplicates, IC50 values were calculated from the mean values of all samples used in the various experiments using GraphPad Prism 5 software. […]

[2] = test system: SU-DHL9; assay: Viability test on SU-DHL9 cells; type: cell-based, human
Description: (§1) All experiments with hematological cell lines were done using phenol red-free RPMI 1640+L-glutamine (PAA Laboratories) supplemented with 1% PenStrep and 10% FBS gold, except experiments with OCI-Ly7 which were carried out in Gibco IMEM+GlutaMAX and 25 mM HEPES containing 20% FBS gold and 1% PenStrep. Cells were incubated in triplicates with increasing concentrations of the compounds for 48 h, changes in viability were determined using the cell proliferation and cytotoxicity assays EZ4U (Biomedica Group, Austria) and CellTiter-Blue Cell Viability Assay (Promega, Madison, Wis., USA) following instructions of the manufacturers. IC50 values were calculated from two independent experiments using GraphPad Prism 5 software.
Hematologic malignancies are highly heterogeneous in their biology and behavior. This and the fact that some patient groups are resistant to therapy underlines the urgent need for new therapeutic drugs. Compound 15 has therefore been tested on other cell lines representing a variety of hematologic neoplasms: two T-cell acute leukemia cell lines (CCRF, Jurkat), two myeloid leukemia cell lines (HL60, K562), and two additional B-cell lines (SU-DHL6, SU-DHL9). Viability was assessed as described in the methods section above. […] An exception was the chronic myeloid leukemia line K562. […]

[3] = test system: MEC1; assay: Viability test (CellTiter-Blue/EZ4U) on MEC1 cells, 48 h; type: cell-based, human; conditions: Homo sapiens, MEC1, 48 h, 48 h incubation; nd = no significant cytotoxic activity up to 100 μM
Description: JURKAT and CCRF-CEM (T-cell acute lymphoblastic leukemia), HL60 and K562 representing acute and chronic myeloid leukemia, respectively, the chronic lymphocytic leukemia cell line MEC-1, and the diffuse large B-cell lymphoma cell line U-2940 were cultured in Gibco RPMI 1640+GlutaMAX (Life Technologies, Carlsbad, Calif., USA) supplemented with 10% fetal bovine serum gold (FBS gold; PAA Laboratories, Pasching, Austria) and 1% PenStrep (100 U/ml penicillin and 100 μg/ml streptomycin; PAA Laboratories), and maintained at 37° C. in humidified atmosphere with 5% CO2. The diffuse large B-cell lymphoma cell line OCI-LY7 was cultured in Gibco IMDM+GlutaMAX and 25 mM HEPES (Life Technologies) containing 20% FBS gold and 1% PenStrep.
as §1
Initially, compounds were biologically tested in six concentration steps (0.1 μM; 1 μM; 5 μM; 10 μM; 50 μM; and 100 μM) using the CellTiter-Blue Cell Viability Assay (Promega, Madison, Wis., USA) and an incubation time of 48 hours. […] IC50 values were calculated from at least two independent experiments with 3 replicates each. In order to evaluate the biologic activity of the new compounds, cytotoxicity was compared to that of fludarabine, an already approved drug for the treatment of various B-cell malignancies. […] Differences in IC50 values for the different cell types can be explained by the biological and genetic particularities of each subtype of B-cell Non-Hodgkin lymphoma (Stacchini A et al. Leukemia Res 1999, 23, 127-136; Sambade C et al. Int J Cancer 2006, 118, 555-563; Chang H et al. Leukemia lymphoma 1995, 19, 165-171; Tweeddale M E et al. Blood 1987, 69, 1307-1314; Tweeddale M et al. Blood 1989, 74, 572-578).

[4] = test system: HL60; assay: Viability test on HL60 cells; type: cell-based, human
Description: JURKAT and CCRF-CEM (T-cell acute lymphoblastic leukemia), HL60 and K562 representing acute and chronic myeloid leukemia, respectively, the chronic lymphocytic leukemia cell line MEC-1, and the diffuse large B-cell lymphoma cell line U-2940 were cultured in Gibco RPMI 1640+GlutaMAX (Life Technologies, Carlsbad, Calif., USA) supplemented with 10% fetal bovine serum gold (FBS gold; PAA Laboratories, Pasching, Austria) and 1% PenStrep (100 U/ml penicillin and 100 μg/ml streptomycin; PAA Laboratories), and maintained at 37° C. in humidified atmosphere with 5% CO2. […]
as §1, with “software. […]” for “software.”

[5] = test system: primary cells from CLL patients; assay: Combination treatment of CLL primary cells with compound 15 and a further anticancer agent; type: cell-based, human
Description: Peripheral blood mononuclear cells (PBMCs) of CLL patients were incubated in increasing concentrations of one of the above-mentioned anticancer agents alone or increasing anticancer agent concentrations plus compound 15 in two different concentrations under standard conditions for 48 h before viability was determined (CellTiterBlue, Promega). Primary cells from 5 (ABT199) or 6 patients (CAL101, PCI32765) were included.

In the case of `CCOc1ccccc1C(=O)/C=C/c1cc2ccccc2[nH]1` [Compound 15, 1-(2-Ethoxyphenyl)-3-(1H-indole-2-yl)-2-propen-1-one], the IC50 [1] is reported as 1180 nM, the IC50 ([2]; Homo sapiens, B-cell lymphoma, nd = no significant cytotoxic activity up to 100 μM) is reported as 30 nM and the “viability, % of control” value ([2]; SU-DHL9, at concentrations <1 μM) is reported as “less than 30 % of control”. For the same compound, the IC50 [3] was 22 nM, the “viability, % of control” value ([4]; HL60, at concentrations <1 μM) was “less than 30 % of control” and the IC50 ([4]; Homo sapiens, HL-60, myeloid leukemia, nd = no significant cytotoxic activity up to 100 μM) was 20 nM. For the same compound, the “effect of adding compound 15 to ABT199 on cytotoxicity” value ([5]; combination with ABT199, N=5, 48 h) was “synergistic effect”, the “effect of adding compound 15 to CAL101 on cytotoxicity” value ([5]; combination with CAL101 (idelalisib), N=6, 48 h) was “synergistic effect” and the “effect of adding compound 15 to PCI32765 on cytotoxicity” value ([5]; combination with PCI32765 (ibrutinib), N=6, 48 h) was “synergistic effect”.
